# Reference: ChEMBL document CHEMBL5357080, “Redefining Neurodegenerative Treatment: Synergy of KEAP1, PROTACs, and Inflammatory Modulators” (ACS Med Chem Lett, 2024)
# Target: Bromodomain-containing protein 4 (Homo sapiens) (UniProt O60885)
# Assay: Induction of degradation of BRD4 in human MDA-MB-468 cells at 0.01 uM measured after 24 to 48 hrs by densitometry analysis relative to control
# Type: cell-based
# Settings: time lower […], time upper […]
smiles,measurement,value
Cc1sc2c(c1C)C(c1ccc(Cl)cc1)=N[C@@H](CC(=O)NCC(=O)NCCn1nnc(COc3ccc(Cl)c4c3[C@@H](CN3CC5(CC5)CC3=O)N(C(=O)[C@@H]3CCCC[C@]3(C)C(=O)O)CC4)c1C)c1nnc(C)n1-2,Activity,75%
